In patent US20080194545A1, “ANTIMICROBIAL COMPOSITIONS AND METHODS OF USE” (TRIUS THERAPEUTICS, priority 2007, published 2008):

Columns and labels:
[1] = system: S. aureus; test: Antibacterial activity, minimal inhibitory concentration (MIC) against S. aureus; format: cell-based; details: Staphylococcus aureus
Description: Antibacterial activity as measured by the minimal inhibitory concentrations (MIC) and minimal bactericidal concentrations of compounds are well known (see., e.g., National Committee for Clinical Laboratory Standards 2000 Performance standards for antimicrobial disk susceptibility tests: approved standard, 7th ed. M2-A7, vol. 20, no. 1, Committee for Clinical Laboratory Standards, Wayne, Pa.)
In vitro testing for antibacterial activity may be accomplished through use of a whole-cell bacterial growth inhibition assay. For example, an […] assay identifies a substance that inhibits bacterial growth. Microtiter plates are prepared with serial dilutions of the test compound, adding to the preparation a given amount of growth substrate, and providing a preparation of bacteria. Inhibition of bacterial growth is determined, for example, by observing changes in optical densities of the bacterial cultures. Inhibition of bacterial growth is determined, for example, by comparing (in the presence and absence of a test compound) the rate of growth or the absolute growth of bacterial cells. Inhibition includes a reduction of one of the above measurements by at least 20%.

[2] = target: S. Aureus MetRS (Staphylococcus aureus, UniProt Q5HII6); test: MetRS inhibition (coupling of radiolabeled methionine to tRNAMet, TCA-precipitable counts); format: biochemical; details: purified MetRS enzyme
Description: The inhibition of MetRS activity may be monitored through use of in vitro bio-chemical assays through use of purified MetRS protein. Synthesis of a MetRS polypeptide can readily be accomplished through use of any of the various art-known techniques. For instance, a MetRS polypeptide can be synthesized chemically in vitro or recombinant DNA methods which are well known to those skilled in the art can be used to construct expression vectors containing MetRS coding sequences, and appropriate transcriptional/translational control signals. These methods include, for example, in vitro recombinant DNA techniques, synthetic techniques and in vivo recombination/genetic recombination. Alternatively, RNA capable of encoding target gene protein sequences can be chemically synthesized through use of synthesizers, for example.
The compounds of the present invention may also be evaluated for the ability to inhibit MetRS activity through use of known methods that measure the MetRS-dependent coupling of methionine to its cognate tRNA. In the assay, radiolabeled methionine, tRNA^Met and purified MetRS enzyme are incubated under appropriate conditions in the presence and absence of test compound and the amount of TCA-precipitable counts, which reflects the amount of methionine coupled to tRNA^Met, is determined.

Sequence of S. Aureus MetRS (Q5HII6 whole entry): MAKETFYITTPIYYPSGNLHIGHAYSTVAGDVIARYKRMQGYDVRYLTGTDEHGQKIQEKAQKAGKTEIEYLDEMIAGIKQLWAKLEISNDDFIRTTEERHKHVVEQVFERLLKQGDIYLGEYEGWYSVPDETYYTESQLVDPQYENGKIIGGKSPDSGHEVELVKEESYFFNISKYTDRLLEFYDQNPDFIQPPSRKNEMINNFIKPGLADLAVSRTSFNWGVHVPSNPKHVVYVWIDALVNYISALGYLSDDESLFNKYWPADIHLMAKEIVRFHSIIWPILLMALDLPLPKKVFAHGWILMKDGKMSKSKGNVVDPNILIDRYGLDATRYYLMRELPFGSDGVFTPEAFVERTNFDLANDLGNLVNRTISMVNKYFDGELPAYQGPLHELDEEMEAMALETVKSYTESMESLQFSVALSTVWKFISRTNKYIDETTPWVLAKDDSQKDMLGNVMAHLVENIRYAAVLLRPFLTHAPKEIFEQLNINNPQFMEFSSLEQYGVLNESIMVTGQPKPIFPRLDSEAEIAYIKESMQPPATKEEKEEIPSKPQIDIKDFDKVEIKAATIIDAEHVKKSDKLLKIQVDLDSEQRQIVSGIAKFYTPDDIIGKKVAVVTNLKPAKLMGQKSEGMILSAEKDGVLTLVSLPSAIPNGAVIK

SMILES | MIC [1] | IC50 [2]
COc1ccc(Oc2cc(NCc3nc4ccccc4[nH]3)nc(N3CCN(C(=O)C4CC4)CC3)n2)c(Cl)c1 [Compound 6.48] | ≤ 8 µg/mL | < 0.05 µM
COc1cc(Cl)c(Oc2cc(NCc3nc4ccccc4[nH]3)nc(N3CCN(CCN4CCOCC4)CC3)n2)cc1OC [Compound 6.140] | ≤ 8 µg/mL | < 0.05 µM
COc1ccc(Oc2cc(NCc3nc4ccccc4[nH]3)nc(N3CCN(C(=O)N(C)C)CC3)n2)c(Cl)c1 [Compound 6.49] | ≤ 8 µg/mL | < 0.05 µM
COc1ccc(Oc2cc(N3CCCC3CO)nc(NCc3nc4ccccc4[nH]3)n2)c(Cl)c1 (centres unmarked) [Compound 5.51] | ≤ 8 µg/mL | < 0.05 µM
COc1ccc(Oc2cc(-n3cnc(C)c3)nc(NCc3nc4ccccc4[nH]3)n2)c(Cl)c1 [Compound 5.53] | ≤ 8 µg/mL | –
COc1ccc(Oc2cc(NCc3nc4ccccc4[nH]3)nc(N3CCN(c4ncccn4)CC3)n2)c(Cl)c1 [Compound 6.45] | ≤ 8 µg/mL | < 0.05 µM
COc1cc(Cl)c(Oc2cc(NCc3nc4ccccc4[nH]3)nc(N3CCN(CCn4ccnc4)CC3)n2)cc1OC [Compound 6.113] | ≤ 8 µg/mL | < 0.05 µM
COc1cc(Cl)c(Oc2cc(NCc3nc4ccccc4[nH]3)nc(N3CCNC(=O)C3)n2)cc1OC [Compound 6.56] | ≤ 8 µg/mL | < 0.05 µM
COc1cc(Cl)c(Oc2cc(NCc3nc4ccccc4[nH]3)nc(N3CCN(Cn4ccnc4C)CC3)n2)cc1OC [Compound 6.143] | ≤ 8 µg/mL | < 0.05 µM
COc1cc(Cl)c(Oc2cc(NCc3nc4ccccc4[nH]3)nc(N3CCN(C(=O)N(C)C)CC3)n2)cc1OC [Compound 6.89] | ≤ 8 µg/mL | < 0.05 µM
COc1cc(Cl)c(Oc2cc(NCc3nc4ccccc4[nH]3)nc(N3CCN(C(C)=O)CC3)n2)cc1OC [Compound 6.55] | ≤ 8 µg/mL | < 0.05 µM
COc1cc(Cl)c(Oc2cc(NCc3nc4ccccc4[nH]3)nc(N3CCN(c4cnccn4)CC3)n2)cc1OC [Compound 6.93] | ≤ 8 µg/mL | < 0.05 µM
COc1ccc(Oc2cc(NCc3nc4ccccc4[nH]3)nc(N3CCNC(=O)C3)n2)c(Cl)c1 [Compound 6.30] | ≤ 8 µg/mL | < 0.05 µM
COc1ccc(Oc2cc(N(C)C)nc(NCc3nc4ccccc4[nH]3)n2)c(Cl)c1 [Compound 5.10] | ≤ 8 µg/mL | < 0.05 µM
COc1ccc(Oc2cc(N3CCN(C(=O)c4ccco4)CC3)nc(NCc3nc4ccccc4[nH]3)n2)c(Cl)c1 [Compound 5.50] | ≤ 8 µg/mL | < 0.05 µM
COc1cc(Cl)c(Oc2cc(NCc3nc4ccccc4[nH]3)nc(N3CCN(C(=O)C4CC4)CC3)n2)cc1OC [Compound 6.88] | ≤ 8 µg/mL | < 0.05 µM
COc1ccc(Oc2cc(NCc3nc4ccccc4[nH]3)nc(N3CCN(C(=O)C4CCCO4)CC3)n2)c(Cl)c1 (centres unmarked) [Compound 6.61] | ≤ 8 µg/mL | < 0.05 µM
COc1ccc(Oc2cc(NCc3nc4ccccc4[nH]3)nc(N3CCN(C(C)=O)CC3)n2)c(Cl)c1 [Compound 6.19] | ≤ 8 µg/mL | < 0.05 µM
COc1cc(Cl)c(Oc2cc(NCc3nc4ccccc4[nH]3)nc(N3CCC(N4CCOCC4)CC3)n2)cc1OC [Compound 6.138] | ≤ 8 µg/mL | < 0.05 µM
COc1ccc(Oc2cc(NNc3cc(=O)c4ccccc4[nH]3)nc(N(C)C)n2)c(Cl)c1 [Compound 6.06] | ≤ 8 µg/mL | < 0.05 µM
COc1cc(Cl)c(Oc2cc(NCc3nc4ccccc4[nH]3)nc(N3CCN(c4ncccn4)CC3)n2)cc1OC [Compound 6.90] | ≤ 8 µg/mL | < 0.05 µM
COc1cc(Cl)c(Oc2cc(NCc3nc4ccccc4[nH]3)nc(N3CCCN(C(C)=O)CC3)n2)cc1OC [Compound 6.63] | ≤ 8 µg/mL | < 0.05 µM

SMILES | MIC [1] | IC50 [2]
COc1cc(Cl)c(Oc2cc(NCc3nc4ccccc4[nH]3)nc(N3CCN(C(=O)N4CCCC4)CC3)n2)cc1OC [Compound 6.144] | ≤ 8 µg/mL | < 0.05 µM
COc1ccc(Oc2cc(N3CCC(O)C3)nc(NCc3nc4ccccc4[nH]3)n2)c(Cl)c1 (centres unmarked) [Compound 5.35] | ≤ 8 µg/mL | –
COc1cc(Cl)c(Oc2cc(NCc3nc4ccccc4[nH]3)nc(N3CCN(c4ncncn4)CC3)n2)cc1OC [Compound 6.105] | ≤ 8 µg/mL | < 0.05 µM
COc1cc(Cl)c(Oc2cc(NCc3nc4ccccc4[nH]3)nc(N3CCOCC3)n2)cc1OC [Compound 6.86] | ≤ 8 µg/mL | < 0.05 µM
COc1cc(Cl)c(Oc2cc(NCc3nc4ccccc4[nH]3)nc(N3CCN(C(=O)CNc4nccs4)CC3)n2)cc1OC [Compound 6.126] | ≤ 8 µg/mL | < 0.05 µM
COc1ccc(Oc2cc(N3CC(C)NC(C)C3)nc(NCc3nc4ccccc4[nH]3)n2)c(Cl)c1 (centres unmarked) [Compound 5.26] | ≤ 8 µg/mL | < 0.05 µM
COc1ccnc(N2CCN(c3nc(NCc4nc5ccccc5[nH]4)cc(Oc4cc(OC)c(OC)cc4Cl)n3)CC2)n1 [Compound 6.96] | ≤ 8 µg/mL | < 0.05 µM
COc1cc(Cl)c(Oc2cc(NCc3nc4ccccc4[nH]3)nc(N3CCN(c4ccncc4)CC3)n2)cc1OC [Compound 6.95] | ≤ 8 µg/mL | < 0.05 µM
O=C1CN(c2cc(Oc3ccc(Cl)cc3Cl)nc(NCc3nc4ccccc4[nH]3)n2)CCN1 [Compound 5.37] | ≤ 8 µg/mL | < 0.05 µM
CCN(C(C)=O)C1CCN(c2nc(NCc3nc4ccccc4[nH]3)cc(Oc3ccc(OC)cc3Cl)n2)C1 (centres unmarked) [Compound 6.62] | ≤ 8 µg/mL | < 0.05 µM
CC(=O)N1CCN(c2nc(NCc3nc4ccccc4[nH]3)cc(Oc3ccc4ncccc4c3Cl)n2)CC1 [Compound 6.150] | ≤ 8 µg/mL | < 0.05 µM
CC1CN(c2cc(Oc3ccc(Cl)cc3Cl)nc(NCc3nc4ccccc4[nH]3)n2)CC(C)N1 (centres unmarked) [Compound 5.28] | ≤ 8 µg/mL | < 0.05 µM
COc1cc(Cl)c(Oc2cc(NCc3nc4ccccc4[nH]3)nc(N(C)C)n2)cc1OC [Compound 6.83] | ≤ 8 µg/mL | < 0.05 µM
COc1cc(Cl)c(Oc2cc(NCc3nc4ccccc4[nH]3)nc(N3CCC(CN4CCCC4=O)CC3)n2)cc1OC [Compound 6.145] | ≤ 8 µg/mL | < 0.05 µM
COc1cc(Cl)c(Oc2cc(NCc3nc4ccccc4[nH]3)nc(N3CCN(C(=O)N4CCOCC4)CC3)n2)cc1OC [Compound 6.134] | ≤ 8 µg/mL | < 0.05 µM
COc1cc(Cl)c(Oc2cc(NCc3nc4ccccc4[nH]3)nc(N3CCN(c4nccs4)CC3)n2)cc1OC [Compound 6.107] | ≤ 8 µg/mL | < 0.05 µM
COc1cc(Cl)c(Oc2cc(NCc3nc4ccccc4[nH]3)nc(N3CCN(c4ccccn4)CC3)n2)cc1OC [Compound 6.91] | ≤ 8 µg/mL | < 0.05 µM
O=C1CN(c2nc(NCc3nc4ccccc4[nH]3)cc(Oc3ccc(Cl)cc3Cl)n2)CCN1 [Compound 6.23] | ≤ 8 µg/mL | < 0.05 µM
COc1ccc(Oc2cc(N3CCOCC3)nc(NCc3nc4ccccc4[nH]3)n2)c(Cl)c1 [Compound 5.07] | ≤ 8 µg/mL | < 0.05 µM
COc1cc(Cl)c(Oc2cc(NCc3nc4ccccc4[nH]3)nc(N3CCN(CCCN4CCOCC4)CC3)n2)cc1OC [Compound 6.94] | ≤ 8 µg/mL | < 0.05 µM
COc1cc(Cl)c(Oc2cc(NCc3nc4ccccc4[nH]3)nc(N3CCN(CCN4CCCC4)CC3)n2)cc1OC [Compound 6.142] | ≤ 8 µg/mL | < 0.05 µM
COc1ccc(Oc2cc(N3CCN(c4ncccn4)CC3)nc(NCc3nc4ccccc4[nH]3)n2)c(Cl)c1 [Compound 5.70] | ≤ 8 µg/mL | < 0.05 µM
